Data reported in patent US20130273003A1, “Therapies for Treating Hepatitis C Virus Infection” (priority 2012, published 2013).

What was measured:
genotype 1 HCV = test: ADVANCE trial: SVR rates, overall and by IL28B genotype; type: in vivo, Hepatitis C virus; settings: for SVR rate: overall (full analysis population)
Procedure: IL28B genotype was determined in de-identified left-over specimens available from treatment-naïve genotype 1 HCV patients from ADVANCE U.S. sites. Due to the requirements of the de-identification procedure, only samples from Caucasian patients were tested. A series of associated clinical data was retained with the de-identified samples: HCV genotype, prior treatment response, assigned study arm, study completion, RVR, SVR, baseline viral load, EVR, undetectable at EOT.
IL28B genotyping was performed using 100 ng DNA from whole blood or peripheral blood mononuclear cell preparations with TaqMan® PCR, rs12979860 (ABI)

HCV = test: REALIZE trial: SVR by IL28B genotype in Peg-IFN/RBV experienced patients; type: in vivo, Hepatitis C virus; settings: TVR 750 mg every 8 hours in combination with Peg-IFN/RBV, treatment-experienced patients
Procedure: This exploratory sub-analysis evaluated virologic response by IL28B genotype (rs12979860) in the Phase III TVR REALIZE trial. REALIZE is an international, multicentre, randomized, double-blind, placebo-controlled trial in Peg-IFN/RBV experienced patients; including prior relapsers, prior partial responders and prior null responders. Patients were included in this sub-analysis if they had consented to genetic testing.
FIG. 1 is a graphic depiction of the REALIZE study design. Drugs were administered in the following dosages: Peg-IFN alfa-2a=180 μg/week; RBV=1000-1200 mg/day; TVR=750 mg every 8 hours; Pbo=placebo. Overall, 527/662 (80%) patients enrolled in REALIZE consented to genetic testing; Data from T12/PR48 and T12(DS)/PR48 arms were pooled since no differences were observed between TVR arms. Randomization was stratified by viral load and prior response. Stopping rules were applied for TVR (Weeks 4, 6, and 8) and Peg-IFN/RBV (Weeks 12, 24, and 36).

[1] = system: hepatitis C virus (HCV) replicon; test: HCV Replicon Cell Assay; type: cell-based
Procedure: Cells containing hepatitis C virus (HCV) replicon were maintained in DMEM containing 10% fetal bovine serum (FBS), 0.25 mg per ml of G418, with appropriate supplements (media A).
On day 1, replicon cell monolayer was treated with a trypsin:EDTA mixture, removed, and then media A was diluted into a final concentration of 100,000 cells per ml wit. 10,000 cells in 100 μl were plated into each well of a 96-well tissue culture plate, and cultured overnight in a tissue culture incubator at 37° C.
On day 2, compounds (in 100% DMSO) were serially diluted into DMEM containing 2% FBS, 0.5% DMSO, with appropriate supplements (media B). The final concentration of DMSO was maintained at 0.5% throughout the dilution series.
Media on the replicon cell monolayer was removed, and then media B containing various concentrations of compounds was added. […]
A Taqman real-time RT-PCR quantification assay was set up with two sets of specific primers and probe. […] Total RNA extractants from treated HCV replicon cells was added to the PCR reactions for quantification of both HCV and BVDV RNA in the same PCR well. […] The level of HCV RNA in each well was calculated according to a standard curve run in the same PCR plate. The percentage of inhibition or decrease of HCV RNA level due to compound treatment was calculated using the DMSO or no compound control as 0% of inhibition. […]

## CCC[C@H](NC(=O)[C@@H]1[C@H]2CCC[C@H]2CN1C(=O)[C@@H](NC(=O)[C@@H](NC(=O)c1cnccn1)C1CCCCC1)C(C)(C)C)C(=O)C(=O)NC1CC1 [VX-950]
Genotype 1 HCV; T8PR arm
  SVR rate: 69%
Genotype 1 HCV; T12PR arm
  SVR rate: 75%
Genotype 1 HCV; T12PR, IL28B CC
  SVR: 90%
  patients receiving 24 weeks of total therapy: 78%
Genotype 1 HCV; T12PR, IL28B CT
  SVR: 71%
Genotype 1 HCV; T12PR, IL28B TT
  SVR: 73%
Genotype 1 HCV; telaprevir-based regimen
  RVR and eRVR rates compared to peginterferon alfa-2a/ribavirin alone: improved RVR and eRVR rates across all IL28B genotypes
Genotype 1 HCV; telaprevir-based regimen, eRVR, IL28B CC
  achieved SVR: 97%
Genotype 1 HCV; telaprevir-based regimen, eRVR, IL28B CT
  achieved SVR: 88%
Genotype 1 HCV; telaprevir-based regimen, eRVR, IL28B TT
  achieved SVR: 85%
Genotype 1 HCV; telaprevir-based regimen, no eRVR, IL28B CC
  achieved SVR: 63%
Genotype 1 HCV; telaprevir-based regimen, no eRVR, IL28B CT
  achieved SVR: 33%
Genotype 1 HCV; telaprevir-based regimen, no eRVR, IL28B TT
  achieved SVR: 46%
Genotype 1 HCV; telaprevir-based regimen, patients who did not have eRVR (48 weeks of therapy)
  achieved SVR: 43%
Genotype 1 HCV; telaprevir-based regimen, patients who had eRVR (24 weeks of therapy)
  achieved SVR: 91%
HCV
  SVR rates versus Peg-IFN/RBV alone: increased SVR rates across all IL28B genotypes
[1]
  activity in the replicon assay: significant activity
